# In patent US20230212549A1, “COMPOUNDS COMPRISING A […] LIGAND AND USE THEREOF” (priority 2021, published 2023):
# Numbered stars: 1 amine (or outer) side, 2 acyl side, 3 side chain; on linkers, the order of the positions; unused ones are H or OH. Bridge positions count the residues as written; N and C are the ends. Peptide text beside a SMILES is read from it. * marks the point of attachment. X13 = O=C(O)CN1CCN(CC(=O)O)CCN(CC(=O)N2CCN(Cc3cc(C[*:1])cc(C[*:2])c3)CC2)CCN(CC(=O)O)CC1; Hexanoyl = CCCCCC(=O)*
# How the values were obtained:
# KV channel = conditions: read-out: Ki Ref; reference compound (positive control)
# proteases [1] = biological target: T1, proteases (Homo sapiens, UniProt P45974); type: biochemical; conditions: Ubiquitin carboxyl-terminal hydrolase 5; Reference at 1 μM
# T1 construct: BPS Biosciences (ran the screen)
# proteases [2] = biological target: T2, proteases (Homo sapiens, UniProt Q93009); type: biochemical; conditions: Ubiquitin carboxyl-terminal hydrolase 7; Reference at 1 μM
# T2 construct: BPS Biosciences (ran the screen)
# proteases [3] = biological target: T3, proteases (Homo sapiens, UniProt Q14694); type: biochemical; conditions: Ubiquitin carboxyl-terminal hydrolase 10; Reference at 1 μM
# T3 construct: BPS Biosciences (ran the screen)
# proteases [4] = biological target: T4, proteases (Homo sapiens, UniProt Q8N6M0); type: biochemical; conditions: Deubiquitinase OTUD6B; Reference at 1 μM
# T4 construct: BPS Biosciences (ran the screen)
# proteases [5] = biological target: T5, proteases (Homo sapiens, UniProt P15374); type: biochemical; conditions: Ubiquitin carboxy-terminal hydrolase L3; Reference at 10 nM
# T5 construct: BPS Biosciences (ran the screen)
# proteases [6] = biological target: T6, proteases (Homo sapiens, UniProt P09936); type: biochemical; conditions: Ubiquitin carboxy-terminal hydrolase L1; Reference at 100 nM
# T6 construct: BPS Biosciences (ran the screen)
# proteases [7] = biological target: T7, proteases (Homo sapiens, UniProt P21580); type: biochemical; conditions: A20; Reference at 1 μM
# T7 construct: BPS Biosciences (ran the screen)
# proteases [8] = biological target: T8, proteases (Homo sapiens, UniProt P54252); type: biochemical; conditions: Ataxin3; Reference at 10 μM
# T8 construct: BPS Biosciences (ran the screen)
# proteases [9] = biological target: T9, proteases (Homo sapiens, UniProt P40818); type: biochemical; conditions: Ubiquitin carboxyl-terminal hydrolase 8; Reference at 1 μM
# T9 construct: BPS Biosciences (ran the screen)
# proteases [10] = biological target: T10, proteases (Homo sapiens, UniProt P54578); type: biochemical; conditions: Ubiquitin carboxyl-terminal hydrolase 14; Reference at 100 nM
# T10 construct: BPS Biosciences (ran the screen)
# proteases [11] = biological target: T11, proteases (Homo sapiens, UniProt O75604); type: biochemical; conditions: Ubiquitin carboxyl-terminal hydrolase 2; Reference at 1 μM
# T11 construct: BPS Biosciences (ran the screen)
# [12] = system: metastatic colorectal cancer; conditions: patients with metastatic colorectal cancer, Phase I and II clinical trials; cited from earlier work
# proteases [13] = biological target: T12, proteases (Homo sapiens, UniProt Q12884); type: biochemical; conditions: FAP; Reference at 100 nM
# T12 construct: BPS Biosciences (ran the screen)
# proteases [14] = biological target: T13, proteases (Hepatitis C virus genotype 2a, UniProt Q99IB8); type: biochemical; conditions: serine protease NS3 (a.a. 3-181) from Hepatitis C virus genotype 2a; Reference at 100 nM
# T13 construct: BPS Biosciences (ran the screen)
# proteases [15] = biological target: T14, proteases (Hepatitis C virus genotype 1b, UniProt P26663, D1194V); type: biochemical; conditions: serine protease NS3 (a.a. 3-181) from Hepatitis C virus genotype 1b (mutant D168V); Reference at 100 nM
# T14 construct: BPS Biosciences (ran the screen)
# proteases [16] = biological target: T15, proteases (Hepatitis C virus genotype 1a, UniProt P27958, D1194V); type: biochemical; conditions: serine protease NS3 (a.a. 3-181) from Hepatitis C virus genotype 1a (mutant D168V); Reference at 100 nM
# T15 construct: BPS Biosciences (ran the screen)
# proteases [17] = biological target: T16, proteases (Hepatitis C virus genotype 1b, UniProt P26663); type: biochemical; conditions: serine protease NS3 (a.a. 3-181) from Hepatitis C virus genotype 1b; Reference at 100 nM
# T16 construct: BPS Biosciences (ran the screen)
# proteases [18] = biological target: T17, proteases (Hepatitis C virus genotype 1b, UniProt P26663, R1181Q); type: biochemical; conditions: serine protease NS3 (a.a. 3-181) from Hepatitis C virus genotype 1b (mutant R155Q); Reference at 1 μM
# T17 construct: BPS Biosciences (ran the screen)
# 5-HT2B (h) = 5-HT2B (h) (Homo sapiens, UniProt P41595); conditions: read-out: Ki Ref; reference compound (positive control)
# [19] = 24 h incubation, 37° C.
# [20] = 24 h incubation, 37° C.; remark: listed apart in the source
# [21] = biological target: Ca2+ channel (L, dihydropyridine site) (Rattus norvegicus, UniProt P22002); experiment: biochemical; conditions: read-out: % Inhibition of Specific Binding
# proteases [22] = biological target: T18, proteases (Homo sapiens, UniProt Q9UBX1); type: biochemical; conditions: Cathepsin F; Reference at 1 μM
# T18 construct: BPS Biosciences (ran the screen)
# proteases [23] = biological target: proteases (Homo sapiens, UniProt Q9UHL4); type: biochemical; conditions: DPP7; Reference at 200 μM
# proteases [24] = biological target: T19, proteases (Homo sapiens, UniProt Q6V1X1); type: biochemical; conditions: DPP8; Reference at 200 μM
# T19 construct: BPS Biosciences (ran the screen)
# NMDA = conditions: read-out: Ki Ref; reference compound (positive control)
# proteases [25] = biological target: T20, proteases (Homo sapiens, UniProt P03956); type: biochemical; conditions: Matrix metalloproteasel; Reference at 1 μM
# T20 construct: BPS Biosciences (ran the screen)
# proteases [26] = biological target: T21, proteases (Homo sapiens, UniProt P14780, Q279R); type: biochemical; conditions: 0.1 µM
# T21 construct: BPS Biosciences (ran the screen)
# proteases [27] = biological target: T22, proteases (Homo sapiens, UniProt P08253); type: biochemical; conditions: Matrix metalloprotease 2; Reference at 100 nM
# T22 construct: BPS Biosciences (ran the screen)
# [28] = biological target: T23, FAP-expressing human WI-38 fibroblasts (Homo sapiens, UniProt Q12884); experiment: Competitive FACS binding assay
# T23 construct: FAP-expressing human WI-38 fibroblasts (ECACC) were cultured in EMEM; host or cells: WI-38 human fibroblasts
# Description: Cells were analyzed in an Attune NxT flow cytometer. […] […].
# Cells were analyzed in an Attune NxT flow cytometer. […]
# [29] = In vivo SPECT/CT imaging of ^111In-3BP-4560 in mice; conditions: ^111In-labelled, FIG. 28
# Human recombinant FAP [30] = biological target: T24, Human recombinant FAP (Homo sapiens, UniProt Q12884); experiment: FRET-based FAP protease activity assay; type: biochemical; design: purchased R&D systems 3715-SE; conditions: pIC50 Category (Activity), FRET-peptide substrate, 37° C.
# Human recombinant FAP [31] = biological target: T24, Human recombinant FAP; experiment: Surface plasmon resonance (Biacore) assay; type: binding
# HEK-FAP tumor = experiment: SPECT imaging and biodistribution of ^111In-labelled compounds in mice with HEK-FAP tumors; type: in vivo; conditions: FIG. 21
# Sarc4809 PDX tumors = experiment: Efficacy study, sarcoma Sarc4809 PDX model; conditions: throughout the study, 30 or 60 MBq
# HEK-FAP tumors = experiment: Efficacy study, HEK-FAP tumor model; conditions: throughout the study, 30 or 60 MBq
# alpha 1A (h) = alpha 1A (h) (Homo sapiens, UniProt P35348); conditions: read-out: Ki Ref; reference compound (positive control)
# proteases [32] = biological target: T25, proteases (Homo sapiens, UniProt P55210); type: biochemical; conditions: Caspase-7; Reference at 1 μM
# T25 construct: BPS Biosciences (ran the screen)
# proteases [33] = biological target: T26, proteases (Homo sapiens, UniProt P42574); type: biochemical; conditions: Caspase-3; Reference at 100 nM
# T26 construct: BPS Biosciences (ran the screen)
# T24 sequence (Q12884 whole entry): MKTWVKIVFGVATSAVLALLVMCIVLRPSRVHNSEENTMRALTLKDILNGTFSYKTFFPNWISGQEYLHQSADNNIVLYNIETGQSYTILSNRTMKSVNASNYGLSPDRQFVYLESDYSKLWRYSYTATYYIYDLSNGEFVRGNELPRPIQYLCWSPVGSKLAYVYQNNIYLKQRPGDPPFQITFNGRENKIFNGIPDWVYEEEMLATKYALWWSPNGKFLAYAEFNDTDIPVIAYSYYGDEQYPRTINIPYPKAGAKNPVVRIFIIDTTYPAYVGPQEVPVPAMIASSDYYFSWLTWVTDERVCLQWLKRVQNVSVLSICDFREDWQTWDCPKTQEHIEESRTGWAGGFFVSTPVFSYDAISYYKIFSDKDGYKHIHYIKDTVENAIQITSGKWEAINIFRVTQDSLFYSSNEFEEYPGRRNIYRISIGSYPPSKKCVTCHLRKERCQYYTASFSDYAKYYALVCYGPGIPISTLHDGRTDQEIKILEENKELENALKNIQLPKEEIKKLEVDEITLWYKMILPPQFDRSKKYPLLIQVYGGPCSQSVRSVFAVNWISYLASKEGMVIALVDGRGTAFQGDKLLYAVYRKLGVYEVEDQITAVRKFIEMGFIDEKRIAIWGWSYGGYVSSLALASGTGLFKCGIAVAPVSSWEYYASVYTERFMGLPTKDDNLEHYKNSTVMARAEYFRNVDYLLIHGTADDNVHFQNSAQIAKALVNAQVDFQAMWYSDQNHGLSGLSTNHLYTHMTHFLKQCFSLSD
# Chain of Ca2+ channel (L, dihydropyridine site) (P22002 whole entry): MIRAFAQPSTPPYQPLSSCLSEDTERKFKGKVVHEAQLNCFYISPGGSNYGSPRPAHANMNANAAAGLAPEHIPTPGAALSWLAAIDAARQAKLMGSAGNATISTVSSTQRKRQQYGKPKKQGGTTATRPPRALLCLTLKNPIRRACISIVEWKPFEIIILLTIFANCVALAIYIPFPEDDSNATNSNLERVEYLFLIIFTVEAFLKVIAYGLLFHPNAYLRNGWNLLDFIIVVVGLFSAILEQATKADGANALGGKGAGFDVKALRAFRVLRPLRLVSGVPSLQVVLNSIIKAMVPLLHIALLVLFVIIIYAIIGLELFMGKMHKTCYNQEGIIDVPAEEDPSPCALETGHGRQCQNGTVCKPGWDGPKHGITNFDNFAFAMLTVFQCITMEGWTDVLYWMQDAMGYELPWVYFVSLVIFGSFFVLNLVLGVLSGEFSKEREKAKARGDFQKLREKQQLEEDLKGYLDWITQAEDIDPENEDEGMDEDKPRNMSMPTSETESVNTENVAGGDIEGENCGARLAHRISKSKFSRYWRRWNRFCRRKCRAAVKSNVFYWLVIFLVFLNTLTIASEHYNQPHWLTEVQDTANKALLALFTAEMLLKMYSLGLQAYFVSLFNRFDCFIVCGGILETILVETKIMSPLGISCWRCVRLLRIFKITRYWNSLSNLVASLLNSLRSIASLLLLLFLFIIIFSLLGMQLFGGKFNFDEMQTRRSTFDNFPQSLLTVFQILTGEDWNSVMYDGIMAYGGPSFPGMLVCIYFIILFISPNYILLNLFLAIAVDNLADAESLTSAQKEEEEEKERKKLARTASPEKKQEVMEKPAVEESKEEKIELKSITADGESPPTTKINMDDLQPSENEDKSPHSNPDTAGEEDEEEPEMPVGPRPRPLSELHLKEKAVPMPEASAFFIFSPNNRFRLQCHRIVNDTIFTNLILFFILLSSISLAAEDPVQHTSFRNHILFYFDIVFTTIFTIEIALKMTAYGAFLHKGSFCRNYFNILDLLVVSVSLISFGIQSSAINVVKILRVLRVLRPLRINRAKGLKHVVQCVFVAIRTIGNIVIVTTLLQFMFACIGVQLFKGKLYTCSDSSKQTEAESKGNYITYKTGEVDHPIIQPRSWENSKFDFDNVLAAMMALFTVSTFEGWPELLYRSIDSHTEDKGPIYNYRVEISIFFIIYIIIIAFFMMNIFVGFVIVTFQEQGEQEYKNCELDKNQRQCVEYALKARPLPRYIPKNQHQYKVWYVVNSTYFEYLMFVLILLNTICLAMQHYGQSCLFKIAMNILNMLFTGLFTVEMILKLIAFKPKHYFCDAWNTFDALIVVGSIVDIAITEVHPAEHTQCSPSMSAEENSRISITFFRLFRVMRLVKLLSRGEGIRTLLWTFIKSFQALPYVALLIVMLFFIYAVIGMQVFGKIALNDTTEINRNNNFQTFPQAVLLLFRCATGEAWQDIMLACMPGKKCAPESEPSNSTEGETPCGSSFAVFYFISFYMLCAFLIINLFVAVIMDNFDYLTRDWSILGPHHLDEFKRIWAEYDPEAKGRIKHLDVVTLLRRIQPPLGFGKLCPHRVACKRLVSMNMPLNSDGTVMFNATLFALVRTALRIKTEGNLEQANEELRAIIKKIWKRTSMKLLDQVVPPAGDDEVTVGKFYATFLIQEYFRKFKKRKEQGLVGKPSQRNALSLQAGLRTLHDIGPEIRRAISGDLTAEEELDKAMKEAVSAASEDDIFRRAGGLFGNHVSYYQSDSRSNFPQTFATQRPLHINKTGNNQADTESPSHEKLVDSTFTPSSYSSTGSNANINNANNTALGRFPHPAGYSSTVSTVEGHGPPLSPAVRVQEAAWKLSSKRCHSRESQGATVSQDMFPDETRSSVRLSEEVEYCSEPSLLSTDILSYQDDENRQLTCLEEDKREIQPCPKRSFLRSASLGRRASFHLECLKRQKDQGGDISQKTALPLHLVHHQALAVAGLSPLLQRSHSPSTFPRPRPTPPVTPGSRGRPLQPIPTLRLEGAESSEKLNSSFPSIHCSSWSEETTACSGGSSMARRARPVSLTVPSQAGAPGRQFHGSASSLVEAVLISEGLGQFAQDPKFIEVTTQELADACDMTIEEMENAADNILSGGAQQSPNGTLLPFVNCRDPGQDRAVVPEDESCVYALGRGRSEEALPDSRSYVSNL
# T23 sequence (Q12884 whole entry): as the sequence (Q12884 whole entry) above
# T4 sequence (Q8N6M0 whole entry): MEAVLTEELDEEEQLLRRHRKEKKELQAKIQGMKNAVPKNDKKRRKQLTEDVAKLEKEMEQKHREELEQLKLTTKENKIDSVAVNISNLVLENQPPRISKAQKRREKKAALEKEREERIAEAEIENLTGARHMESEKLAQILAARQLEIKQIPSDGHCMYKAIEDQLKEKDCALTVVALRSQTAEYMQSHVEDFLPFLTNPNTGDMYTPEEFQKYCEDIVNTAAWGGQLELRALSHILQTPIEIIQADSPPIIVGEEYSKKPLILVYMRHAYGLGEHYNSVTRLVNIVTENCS
# T21 sequence (P14780 94-707 Q279R): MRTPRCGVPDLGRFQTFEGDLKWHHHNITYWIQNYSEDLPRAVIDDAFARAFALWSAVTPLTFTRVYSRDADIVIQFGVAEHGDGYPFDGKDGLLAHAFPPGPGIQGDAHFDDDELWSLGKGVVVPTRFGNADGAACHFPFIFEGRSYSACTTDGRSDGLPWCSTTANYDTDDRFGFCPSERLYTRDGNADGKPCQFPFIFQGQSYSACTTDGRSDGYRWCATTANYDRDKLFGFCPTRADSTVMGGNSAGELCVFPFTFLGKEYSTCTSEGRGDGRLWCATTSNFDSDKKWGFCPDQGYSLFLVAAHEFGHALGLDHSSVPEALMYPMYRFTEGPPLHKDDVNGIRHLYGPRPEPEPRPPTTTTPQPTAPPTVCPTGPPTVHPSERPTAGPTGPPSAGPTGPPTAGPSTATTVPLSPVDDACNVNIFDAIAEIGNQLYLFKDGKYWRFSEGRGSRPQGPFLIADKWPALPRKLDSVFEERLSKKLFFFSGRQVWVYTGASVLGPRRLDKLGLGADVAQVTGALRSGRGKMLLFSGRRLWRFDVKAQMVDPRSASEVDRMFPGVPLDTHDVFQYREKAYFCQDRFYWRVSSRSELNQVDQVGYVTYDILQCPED
# T3 sequence (Q14694 whole entry): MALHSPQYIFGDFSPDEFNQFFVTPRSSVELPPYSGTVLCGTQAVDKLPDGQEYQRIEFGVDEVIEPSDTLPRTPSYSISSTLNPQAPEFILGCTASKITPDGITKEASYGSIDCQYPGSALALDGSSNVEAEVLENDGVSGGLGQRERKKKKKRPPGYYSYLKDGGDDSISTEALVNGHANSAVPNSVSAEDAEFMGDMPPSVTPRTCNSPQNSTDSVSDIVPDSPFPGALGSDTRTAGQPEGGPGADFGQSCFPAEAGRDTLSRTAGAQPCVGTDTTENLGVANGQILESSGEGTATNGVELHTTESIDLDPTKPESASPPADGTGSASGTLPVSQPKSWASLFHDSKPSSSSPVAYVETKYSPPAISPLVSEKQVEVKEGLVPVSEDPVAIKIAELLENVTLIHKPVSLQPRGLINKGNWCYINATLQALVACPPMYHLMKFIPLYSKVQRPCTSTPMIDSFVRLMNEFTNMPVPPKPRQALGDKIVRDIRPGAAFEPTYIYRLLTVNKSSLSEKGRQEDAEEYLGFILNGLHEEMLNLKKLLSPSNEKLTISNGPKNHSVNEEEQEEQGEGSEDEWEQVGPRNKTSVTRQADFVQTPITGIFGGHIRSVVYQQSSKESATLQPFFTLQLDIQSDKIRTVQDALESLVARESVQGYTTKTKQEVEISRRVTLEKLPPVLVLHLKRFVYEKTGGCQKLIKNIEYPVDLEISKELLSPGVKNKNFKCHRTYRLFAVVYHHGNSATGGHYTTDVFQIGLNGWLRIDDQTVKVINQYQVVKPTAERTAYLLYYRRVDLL
# T5 sequence (P15374 whole entry): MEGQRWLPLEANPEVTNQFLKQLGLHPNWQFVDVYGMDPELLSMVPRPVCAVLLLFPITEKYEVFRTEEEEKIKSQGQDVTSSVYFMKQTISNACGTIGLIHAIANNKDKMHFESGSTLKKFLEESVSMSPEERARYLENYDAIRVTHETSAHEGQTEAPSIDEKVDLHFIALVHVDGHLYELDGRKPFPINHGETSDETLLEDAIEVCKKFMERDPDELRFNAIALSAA
# T12 sequence (Q12884 whole entry): as the sequence (Q12884 whole entry) above
compound,measurement,setting,value
alpha-dendrotoxin,Ki,KV channel,0.097 nM
Ub-Aldehyde,Percentage inhibition (%),proteases [1],84%
same,Percentage inhibition (%),proteases [2],95%
same,Percentage inhibition (%),proteases [3],82%
same,Percentage inhibition (%),proteases [4],97%
same,Percentage inhibition (%),proteases [5],95%
same,Percentage inhibition (%),proteases [6],92%
same,Percentage inhibition (%),proteases [7],99%
same,Percentage inhibition (%),proteases [8],77%
same,Percentage inhibition (%),proteases [9],73%
same,Percentage inhibition (%),proteases [10],96%
same,Percentage inhibition (%),proteases [11],91%
Sibrotuzumab,patients having stable disease,[12],2 out of 17
N#C[C@@H]1CC(F)(F)CN1C(=O)CNC(=O)c1ccnc2ccccc12 [SP-13786],Percentage inhibition (%),proteases [13],100%
Denoprevir,Percentage inhibition (%),proteases [14],98%
same,Percentage inhibition (%),proteases [15],99%
same,Percentage inhibition (%),proteases [16],94%
same,Percentage inhibition (%),proteases [17],100%
same,Percentage inhibition (%),proteases [18],99%
COc1cc(CC(C)N)c(OC)cc1I (racemic) [(±)DOI],Ki,5-HT2B (h),4.2 nM
"CCCCCC(=O)N[C@H]1CSCc2cc(CSCCNC(=O)CN3CCN(CC(=O)O)CCN(CC(=O)O)CCN(CC(=O)O)CC3)cc(c2)CSC[C@@H](C(=O)O)NC(=O)[C@H](Cc2ccccc2)NC(=O)[C@H](CCC(N)=O)NC(=O)[C@H]([C@@H](C)O)NC(=O)[C@@H]2CCCN2C(=O)[C@@H]2CCCN2C1=O [3BP-3554, Hex-[Cys(tMeBn(DOTA-AET))-Pro-Pro-Thr-Gln-Phe-Cys]-OH]","% intact compound remaining after incubation, Rat plasma",[19],100% (24 h)
same,"% intact compound remaining after incubation, Human plasma",[20],100% (24 h)
same,inhibition at 10 µM,[21],54%
Cystatin C,Percentage inhibition (%),proteases [22],74%
N#Cc1ccc(NCCNCC(=O)N2N=CCC2C#N)nc1 (centres unmarked) [KR62436],Percentage inhibition (%),proteases [23],83%
same,Percentage inhibition (%),proteases [24],96%
O=C(O)[C@@H]1C[C@H](CP(=O)(O)O)CCN1 [CGS 19755],Ki,NMDA,140 nM
COc1ccc(S(=O)(=O)N(CC(=O)NO)CC(C)C)cc1 [NNGH],Percentage inhibition (%),proteases [25],87%
same,Percentage inhibition (%),proteases [26],92%
same,Percentage inhibition (%),proteases [27],95%
"CCCCNC(=O)N[C@H]1CSCc2cc(CSCCNC(=O)CN3CCN(CC(=O)O)CCN(CC(=O)O)CCN(CC(=O)O)CC3)cc(c2)CSC[C@@H](C(N)=O)NC(=O)[C@H](Cc2ccccc2)NC(=O)[C@H](CCC(N)=O)NC(=O)[C@H]([C@@H](C)O)NC(=O)[C@@H]2CCCN2C(=O)[C@@H]2CCCN2C1=O [3BP-4560, nBu-CAyl-[Cys(tMeBn(DOTA-AET))-Pro-Pro-Thr-Gln-Phe-Cys]-NH2]",IC50,[28],< 10 nM
same,uptake in healthy tissues (biodistribution),[29],very low uptake in healthy tissues
same,IC50,Human recombinant FAP [30],< 10 nM
same,Kd,Human recombinant FAP [31],< 10 nM
"CCCCNC(=O)N[C@H]1CSCc2cc(CSCCNC(=O)CN3CCN(CC(=O)O)CCN(CC(=O)O)CCN(CC(=O)O)CC3)cc(c2)CSC[C@@H](C(=O)O)NC(=O)[C@H](Cc2ccccc2)NC(=O)[C@H](CCC(N)=O)NC(=O)[C@H]([C@@H](C)O)NC(=O)[C@@H]2CCCN2C(=O)[C@@H]2CCCN2C1=O [3BP-3940, nBu-CAyl-[Cys(tMeBn(DOTA-AET))-Pro-Pro-Thr-Gln-Phe-Cys]-OH]",IC50,[28],< 10 nM
same,IC50,Human recombinant FAP [30],< 10 nM
same,Kd,Human recombinant FAP [31],< 10 nM
same,pKD Category,Human recombinant FAP [31]; Biacore assay,A (Category A stands for pKD values >8.0)
same,uptake in healthy tissues (biodistribution),HEK-FAP tumor,very low uptake in healthy tissues
"CCCCCC(=O)N[C@H]1CSCc2cc(CSCCNC(=O)CN3CCN(CC(=O)O)CCN(CC(=O)O)CCN(CC(=O)O)CC3)cc(c2)CSC[C@@H](C(=O)O)NC(=O)[C@H](Cc2ccccc2)NC(=O)[C@H](CCC(N)=O)NC(=O)[C@H]([C@@H](C)O)NC(=O)[C@@H]2CCCN2C(=O)[C@@H]2CCCN2C1=O [^177Lu-3BP-3554, metal not drawn]",body weight loss (BWL),Sarc4809 PDX tumors,No treatment-related body weight loss
same,body weight loss,HEK-FAP tumors,No treatment-related body weight loss
COc1cccc(OC)c1OCCNCC1COc2ccccc2O1 (centres unmarked) [WB 4101],Ki,alpha 1A (h),0.24 nM
COC[C@@H]1CCCN1S(=O)(=O)c1ccc2c(c1)C(=O)C(=O)N2 [Caspase 3/7 Inhibitor I],Percentage inhibition (%),proteases [32],92%
same,Percentage inhibition (%),proteases [33],89%
"CCCCCC(=O)N[C@H]1CSCc2cc(cc(CN3CCN(C(=O)CN4CCN(CC(=O)O)CCN(CC(=O)O)CCN(CC(=O)O)CC4)CC3)c2)CSC[C@@H](C(=O)N[C@@H](CC(=O)O)C(N)=O)NC(=O)[C@H](Cc2ccccc2)NC(=O)[C@H](CCC(N)=O)NC(=O)[C@H]([C@@H](C)O)NC(=O)[C@@H]2CCCN2C(=O)[C@@H]2CCCN2C1=O [3BP-3407, Hex-[Cys(tMeBn(DOTA-PP))-Pro-Pro-Thr-Gln-Phe-Cys]-Asp-NH2] (Hexanoyl-CPPTQFCD-NH2; linker 1-7 via X13)","% intact compound remaining after incubation, Rat plasma",[19],100% (24 h)
same,"% intact compound remaining after incubation, Human plasma",[20],100% (24 h)
same,inhibition at 10 µM,[21],42%
